Measurements published in patent publication US12606529B2, “Sulfur and amide tropolone inhibitors of nucleotidyl transferases and uses therefor” (Saint Louis University, priority 2019, dated 2026).
Values after ≈ are worked out from the molar mass of the structure shown.

Tests used:
human RNaseH1 = biological target: T1, human RNaseH1 (Homo sapiens, UniProt O60930); assay: Biochemical inhibition of human RNaseH1 activity; details: Table 2 amides; read-out: HuRH1 IC50
T1 sequence (O60930 1-286): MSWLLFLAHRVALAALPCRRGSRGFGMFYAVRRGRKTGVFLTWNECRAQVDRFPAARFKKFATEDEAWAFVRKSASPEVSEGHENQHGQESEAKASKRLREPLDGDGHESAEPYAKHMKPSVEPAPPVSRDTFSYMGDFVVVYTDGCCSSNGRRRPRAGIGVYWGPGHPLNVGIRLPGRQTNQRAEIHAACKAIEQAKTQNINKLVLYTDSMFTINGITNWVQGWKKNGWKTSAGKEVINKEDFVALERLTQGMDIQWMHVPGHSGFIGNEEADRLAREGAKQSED
Experimental: Biochemical inhibition of human RNaseH1 activity. Quantitative inhibition of the human RNaseH1 in the biochemical assays was assessed using a molecular beacon assay as described previously (Edwards et al., 2017). Recombinant human RNaseH 1 (0.3 μg) was incubated with 100 nM RNA:DNA substrate, 50 mM HEPES pH 8.0, 100 mM NaCl, 2 mM Tris(2-carboxyethyl)phosphine hydrochloride (TCEP), 0.05% Tween20, 5 units of RNaseOut, test compounds (0 to 500 μM), and 5% DMSO in a 100 μL reaction volume. The substrate was formed by annealing a complementary RNA oligonucleotide to a hairpin DNA oligonucleotide to hold the hairpin DNA oligonucleotide in an open conformation. The DNA oligonucleotide has a 5′ fluorescein reporter and a 3′ black hole quencher. When the RNA is degraded from the substrate the DNA oligonucleotide closes to form a hairpin structure, decreasing in signal intensity. Reactions were initiated with 5 mM MgCl2 and fluorescence was read using a Synergy HTS multi-mode plate reader at 37° C. Alternatively, the HBV RNaseH version used was MBP-HRHgtCΔ5, a genotype C isolate which lacks the C-terminal 35 amino acids of the HBV RNaseH domain that are predicted to be unstructured. Quantitative inhibition of the human RNaseH1 in biochemical assays was assessed using a FRET-based RNaseH assay under conditions previously reported for an RNaseH molecular beacon assay (Edwards et al., 2017). […] Cleavage of the RNA strand released the fluorescein from quenching, increasing fluorescence. Reactions were monitored for 90 min at 37° C. in a plate reader and initial reaction rates were calculated. Reactions contained escalating concentrations of the compounds.

HSV-1 = assay: Anti-HSV-1 replication assay (Vero cells, plaque titer); assay type: cell-based, herpes simplex virus 1; details: for log reduction at 1 µM / log reduction at 5 µM / log reduction at 0.33 µM: Human alphaherpesvirus 1, Vero, Table 2 amides; for log reduction at 1 µM: compound at 1 μM, read-out: HSV-1 suppression 1 μM; for log reduction at 1 µM / log reduction at 5 µM: values separated by / are repeats; for log reduction at 5 µM: compound at 5 μM, read-out: HSV-1 suppression 5 μM; for log reduction at 0.33 µM: compound at 0.33 μM, read-out: HSV-1 suppression 0.33 μM
[1] = tested on: C. neoformans var. grubii, KN99; assay: C. neoformans growth inhibition assay (limiting dilution); assay type: cell-based, Cryptococcus neoformans; details: Cryptococcus neoformans, 48 h, Table 2 amides; 48 h, 35° C., tested 0.19 to 50 μM; read-out: C. neoformans MIC80
Experimental: Cell types used for C. neoformans studies. All inhibition assays were performed with C. neoformans var. grubii, KN99 (serotype A, MAT). Two clinical strains of C. neoformans var. grubii, serotype A, were provided by Tamara Doering and Andre Spec. […] Cells were diluted to OD650 0.001 in YNB-02 02 (0.67% yeast nitrogen base, 0.2% dextrose, pH 7.0 with 50 mM MOPs)+1% DMSO prior to addition to the plates for the inhibition assays.
C. neoformans growth inhibition assays. Compounds were tested in a limiting dilution assay with a starting optical density (at 650 nm) of 0.001 in YNB-02 plus 1% DMSO. Cells plus compound were incubated in 96-well clear round bottom plates covered with a Breath-easy® membrane without shaking for 48 hours at 35° C. Before measuring cell density, plates were shaken on a microtiter plate shaker at 900 rpm for 3 minutes to resuspend cells and optical density was measured at 650 nm. […] Each assay was done in triplicate and all values are the average of two or more independent assays. The data are presented as the average cell density as a percent of DMSO-only treated cells. MICs are reported as the minimal concentration needed to inhibit 80% of C. neoformans growth relative to vehicle-treated controls.

in vitro = details: human, HepDES19 cells
Experimental: Cells used for toxicity and HBV studies. […] Cells were maintained in Dulbecco's modified Eagle's medium (DMEM)/F12 media supplemented with 10% fetal bovine serum (FBS) and 1% penicillin/streptomycin (P/S) with 1 μg/mL tetracycline. Synchronized expression of HBV pgRNA was induced by removing tetracycline from the culture medium.
Cytotoxicity Assays. Qualitative assessments of cytotoxicity were done visually by inspecting the cells in the primary screening assays. […] The next day the compounds were added at 0.78 to 100 μM in a final concentration of 1% (v/v) DMSO, and the cells were incubated for 24 hours under conditions identical to those employed for the viral replication inhibition assays. Mitochondrial toxicity was measured by incubating the cells with 0.25 mg/mL thiazolyl blue tetrazolium bromide (MTT, SigmaAldrich Chemical Co.), the cultures were incubated for 60 mM, metabolites were solubilized in acidic isopropanol, and absorbance was read at 570 nm. CC50 values were calculated by non-linear curve fitting using GraphPad Prism using the three-parameter variable-response log(inhibitor)-versus-response algorithm with the bottom value set to zero.

SMILES | IC50 (human RNaseH1) [µM] | log reduction at 1 µM (HSV-1) | log reduction at 5 µM (HSV-1) | MIC80 [1] [µM] | CC50 at 24 h (in vitro; CC50 (μM), Table 2 amides, MTT) [µM] | CC50 at 24 h (in vitro; CC50) [µM] | log reduction at 0.33 µM (HSV-1) | Reduction of HSV-1 titers / suppression of HSV-1 replication at 5 μM (HSV-1; 5 μM, plaque forming units (PFU)/ml)
Cc1cc(O)c(=O)c(O)cc1C(=O)N1CCN(C(=O)OC(C)(C)C)CC1 [compound 873] | 74.7 ± 23.1 | -0.148 | 0.2 | 20 (≈ 7.29 µg/mL) | 19.5 ± 8.7 | – | – | –
Cc1cc(O)c(=O)c(O)cc1C(=O)N1CCN(C(=O)c2ccc([N+](=O)[O-])c3nonc23)CC1 [compound 920] | 40.2 ± 39.7 | – | – | 50 (≈ 22.8 µg/mL) | 19.3 ± 14.6 | – | – | –
Cc1cc(O)c(=O)c(O)cc1C(=O)NCC1COC(C)(C)O1 (centres unmarked) [compound 808] | 71.9 ± 12 | – | – | 9 (≈ 2.78 µg/mL) | 14.9 ± 8.6 | – | – | –
Cc1cc(O)c(=O)c(O)cc1C(=O)NCC1CCN(C(=O)OC(C)(C)C)CC1 [compound 805] | 77 ± 30.8 | – | – | 9 (≈ 3.53 µg/mL) | 19.5 ± 10.8 | – | – | –
Cc1cc(O)c(=O)c(O)cc1C(=O)N1CCN(C(=O)N(c2ccccc2)c2ccccc2)CC1 [compound 1020] | 12.9 ± 7.3 | – | – | 8 (≈ 3.68 µg/mL) | 7.8 ± 3.7 | – | – | –
Cc1cc(O)c(=O)c(O)cc1C(=O)N1CCN(c2oc(-c3ccco3)nc2C#N)CC1 [compound 803] | 36.3 ± 4 | – | – | 32 (≈ 13.5 µg/mL) | 23.7 ± 22.9 | – | – | –
COC(=O)[C@H](Cc1ccccc1)NC(=O)c1cc(O)c(=O)c(O)cc1C [compound 795] | 43.5 ± 14.8 | – | – | 9 (≈ 3.22 µg/mL) | 12.7 ± 5.5 | – | – | –
Cc1cc(O)c(=O)c(O)cc1C(=O)N1CCN(C(=O)c2ccc(Cl)cc2)CC1 [compound 875] | 17.2 ± 11 | 0.0449 | 1.32 | 7 (≈ 2.82 µg/mL) | 4.7 ± 1.8 | – | – | –
CCS(=O)(=O)N1CCN(C(=O)c2cc(O)c(=O)c(O)cc2C)CC1 [compound 802] | 76.5 ± 46.9 | – | – | 50 (≈ 17.8 µg/mL) | 27.1 ± 31.2 | – | – | –
Cc1cc(O)c(=O)c(O)cc1C(=O)Nc1ccccc1OCc1ccccc1 [compound 835] | 725 ± 427 | – | 5.23 | 4.5 (≈ 1.7 µg/mL) | 10.3 ± 5.2 | – | – | –
COC(=O)[C@@H](NC(=O)c1cc(O)c(=O)c(O)cc1C)C(C)C [compound 793] | 178 ± 46.6 | – | – | 18 (≈ 5.57 µg/mL) | 18.3 ± 9.8 | – | – | –
Cc1cc(O)c(=O)c(O)cc1C(=O)NC(CC(C)C)C(=O)OC(C)(C)C (centres unmarked) [compound 870] | 289 ± 296 | – | 0.811 | 5 (≈ 1.83 µg/mL) | 9.1 ± 2.7 | – | – | –
Cc1cc(O)c(=O)c(O)cc1C(=O)NCc1ccccc1 [compound 388] | 166 ± 104 | – | 0.05 | 9 (≈ 2.57 µg/mL) | 19.8 ± 3 | – | – | –
COC(=O)[C@H](CC(C)C)NC(=O)c1cc(O)c(=O)c(O)cc1C [compound 794] | 48.1 ± 15.4 | – | – | 9 (≈ 2.91 µg/mL) | 14.7 ± 9.6 | – | – | –
Cc1cc(O)c(=O)c(O)cc1C(=O)Nc1cccc(OCc2ccccc2)c1 [compound 836] | 606 ± 482 | – | 5.2 | 4.5 (≈ 1.7 µg/mL) | 5.4 ± 3.5 | – | – | –
Cc1cc(O)c(=O)c(O)cc1C(=O)Nc1ccccc1Cc1ccccc1 [compound 834] | 37.2 ± 17.2 | – | 1.8 | 9 (≈ 3.25 µg/mL) | 16.4 ± 11.2 | – | – | –
Cc1cc(O)c(=O)c(O)cc1C(=O)NCCNS(=O)(=O)c1ccc(C(F)(F)F)cc1 [compound 874] | 52.6 | – | -0.15 | 14 (≈ 6.25 µg/mL) | 17.7 ± 6.7 | – | – | –
Cc1cc(O)c(=O)c(O)cc1C(=O)NC(CCC(=O)O)C(=O)O (centres unmarked) [compound 868] | 27.7 ± 20.3 | -0.15 | 0.0414 | 50 (≈ 16.3 µg/mL) | 100 | 100 | – | –

SMILES | IC50 (human RNaseH1) [µM] | log reduction at 1 µM (HSV-1) | log reduction at 5 µM (HSV-1) | MIC80 [1] [µM] | CC50 at 24 h (in vitro; CC50 (μM), Table 2 amides, MTT) [µM] | CC50 at 24 h (in vitro; CC50) [µM] | log reduction at 0.33 µM (HSV-1) | Reduction of HSV-1 titers / suppression of HSV-1 replication at 5 μM (HSV-1; 5 μM, plaque forming units (PFU)/ml)
Cc1cc(O)c(=O)c(O)cc1C(=O)NCc1ccc(Oc2ccccc2)cc1 [compound 807] | 799 ± 403 | -0.11 | 4.54 | 4.5 (≈ 1.7 µg/mL) | 6 ± 6.5 | – | 0.0714 | –
Cc1cc(O)c(=O)c(O)cc1C(=O)NCC1CCOC1 (centres unmarked) [compound 1018] | 129 ± 123 | – | – | 50 (≈ 14 µg/mL) | 41.2 ± 33.4 | – | – | –
Cc1cc(O)c(=O)c(O)cc1C(=O)NCc1cccs1 [compound 801] | 833 ± 289 | – | – | 50 (≈ 14.6 µg/mL) | 61.1 ± 22.8 | – | – | –
Cc1cc(O)c(=O)c(O)cc1C(=O)NCCCc1ccccc1 [compound 708] | 267 ± 11.7 | – | 0.04 | 18 (≈ 5.64 µg/mL) | 22.6 ± 12.8 | – | – | –
Cc1cc(O)c(=O)c(O)cc1C(=O)Nc1cccc(Cc2ccccc2)c1 [compound 799] | 713 ± 496 | 0.411 | 3.88 | 2 (≈ 0.723 µg/mL) | 5.3 ± 3.1 | – | 0.0848 | –
Cc1cc(O)c(=O)c(O)cc1C(=O)Nc1ccc(Cc2ccccc2)cc1 [compound 798] | 467 | 2.32 | 4.39 | 1.2 (≈ 0.434 µg/mL) | 3.3 ± 1.8 | 3.3 | -0.0103 | –
COc1ccc(CNC(=O)c2cc(O)c(=O)c(O)cc2C)cc1 [compound 806] | 61.4 ± 15.9 | – | – | 4.6 (≈ 1.45 µg/mL) | 15.9 ± 6.9 | – | – | –
COC(=O)[C@H](Cc1c[nH]c2ccccc12)NC(=O)c1cc(O)c(=O)c(O)cc1C [compound 797] | 44 ± 27.1 | – | – | 9 (≈ 3.57 µg/mL) | 13.9 ± 13.3 | – | – | –
COc1ccc(C(=O)N2CCN(C(=O)c3cc(O)c(=O)c(O)cc3C)CC2)cc1 [compound 877] | 34.9 ± 7.2 | -0.232 | 0.175 | 14 (≈ 5.58 µg/mL) | 16.5 ± 1.4 | – | – | –
Cc1cc(O)c(=O)c(O)cc1C(=O)NCc1ccc(-c2ccccc2)cc1 [compound 539] | 50 ± 9 | 0.52 | 5.3 | 4.5 (≈ 1.63 µg/mL) | 3.6 ± 1.8 | 1.8 | – | more than 5 log10
Cc1cc(O)c(=O)c(O)cc1C(=O)N1CCS(=O)(=O)C1 [compound 709] | 84.8 ± 6.7 | – | -0.27 | 50 (≈ 15 µg/mL) | 19.5 ± 6.7 | – | – | –
Cc1cc(O)c(=O)c(O)cc1C(=O)N1CCN(C(=O)C2CCCCC2)CC1 [compound 872] | 93 ± 53.3 | -0.158 | 0.643 | 20 (≈ 7.49 µg/mL) | 14.4 ± 3.7 | – | – | –
Cc1cc(O)c(=O)c(O)cc1C(=O)NCC1CCCCN1C(=O)OC(C)(C)C (centres unmarked) [compound 810] | 41.5 ± 7.2 | – | – | 4.5 (≈ 1.77 µg/mL) | 10.9 ± 11.2 | – | – | –
Cc1cc(O)c(=O)c(O)cc1C(=O)NCc1ccc(N2CCCC2)cc1 [compound 1019] | 383 ± 471 | – | – | 4.5 (≈ 1.59 µg/mL) | 10.7 ± 6 | – | – | –
Cc1cc(O)c(=O)c(O)cc1C(=O)N1CCN(c2ccc(C(F)(F)F)cc2)CC1 [compound 919] | – | – | – | 2.5 (≈ 1.02 µg/mL) | 5.5 ± 1.9 | – | – | –
CCCCNC(=O)c1cc(O)c(=O)c(O)cc1C [compound 1039] | 219 ± 87.6 | – | – | 12 (≈ 3.02 µg/mL) | 8.7 ± 2.8 | – | – | –
Cc1cc(O)c(=O)c(O)cc1C(=O)N1CCN(S(=O)(=O)c2ccsc2)CC1 [compound 917] | 30.7 ± 15.8 | – | – | 50 (≈ 20.5 µg/mL) | 8.9 ± 4.1 | – | – | –
